{"source": "patent US10172787B2", "about": "“Method of regulating a condition of mammalian keratinous tissue” (priority 2015, dated 2019)", "tested_on": "interleukin-18 (IL-18)", "assay": "Skin sensitization potential: IL-18 production in HEK", "assay_type": "cell-based, human", "conditions": "16 hours", "method": "It is possible for a material to not be cytotoxic, and yet be unsafe due to provoking an allergic reaction upon skin contact. Typically, initial exposure to an allergen sensitizes the immune system, and following exposures cause an allergic response. […] Thus, IL-18 production in HEK was evaluated to determine sensitization potential.\nNormal human adult epidermal keratinocytes (HEK) were cultured as described above for the cytoxicity evaluation. […] The cell lysates were collected, and IL-18 was quantified using Human IL-18 ELISA Kit (Catalog #7620, produced by MBL International Co., Woburn, Mass., USA). […] Fold changes of IL-18 levels between test articles and respective vehicle controls were calculated and compared to pPD (positive control). […]"}
{"smiles": "Nc1ccc(N)cc1", "note": "[benchmark sensitizer, para-phenylenediamine]", "values": [{"measurement": "IL18 Maximum fold (vs vehicle control)", "value": 7.8, "unit": "fold)"}]}
